Here are results for 26 compounds from US20240279207A1, “SUBSTITUTED ACYL SULFONAMIDES FOR TREATING CANCER” (The Broad Institute, Inc., priority 2020, published 2024).

Like-named read-outs stand apart in the source and are kept apart here.

Assay [1] concerns the target T1, Recombinant human His-tagged Kat6a protein (amino acids 194-810) (Homo sapiens, UniProt Q92794).
T1 construct: Kat6a protein (amino acids 194-810); His
The experiment in a line: Kat6a activity assay (TR-FRET, acetylation of Histone-H4-derived peptide). It is filed as biochemical. Conditions: 60 mins at 22° C., 220 nM H4 peptide, 600 nM Acetyl Coenzyme A, read-out: KAT6A - DPF/HAT domain IC50 [mol/l] (arithmetic mean). The procedure: Kat6a inhibitory activities of the compounds described in the present invention were quantified using a Fluorescence Resonance Energy Transfer (TR-FRET) assay which measures acetylation of a synthetic, biotinylated Histone-H4-derived peptide by the enzyme.
In this case 50 nl DMSO were used instead of compounds. […] IC50 values were determined by regression analysis based on a 4 parameter equation (minimum, maximum, ICM, Hill; Y=Max+(Min−Max)/(1+(X/ICso) Hill) using the Screener Software (Genedata).
(In general: TR-FRET usually uses a lanthanide donor and a delayed reading to cut background.)

Assay [2] deals with ESR1 transcription in MVLN cells. Description: MVLN reporter assay: repression of ESR1 transcription (luciferase signal). The format is cell-based. Conditions: Homo sapiens, luciferase signal after 24 h, read-out: MVLN reporter assay, IC50 [M] (arithmetic mean). From the text:
KAT6A controls transcription of the ESR1 gene in breast cancer cells. Compound treatment that interferes with this mechanism was quantified using MVLN cells. These cells constitutively express the ER and are stably transfected with the luciferase (LUC) reporter gene and the corresponding hormone responsive element derived from the 5′-flanking region of the Xenopus Vitellogenin A2 gene (Pons et al., 1990, Demirpense et al., 1993, Joyeux et al., 1993). The repressive effect on ERα transcription activity of a test chemical is directly related to the luciferase measured in the lysate of treated MVLN cells. […] Each sample was prepared as duplicate and rim wells were excluded. For luciferase signal determination 100 μl of a 1:1 mixture of Steadylite plus (Perkin Elmer; 6016759) and assay medium was added after 24 h for 15 minutes and measured in Victor X3 (Perkin Elmer). To exclude any effects caused by cell loss during the treatment, cell density was determined using Alamar Blue (Invitrogen; DAL1100). Prior to the luciferase measurement 10 μl Alamar Blue were added to each well and the plates were incubated for 2 h in the incubator. Then fluorescence was measured with Victor X3 (Perkin Elmer) at 530 nm/590 nm.

T1 sequence (Q92794 194-810): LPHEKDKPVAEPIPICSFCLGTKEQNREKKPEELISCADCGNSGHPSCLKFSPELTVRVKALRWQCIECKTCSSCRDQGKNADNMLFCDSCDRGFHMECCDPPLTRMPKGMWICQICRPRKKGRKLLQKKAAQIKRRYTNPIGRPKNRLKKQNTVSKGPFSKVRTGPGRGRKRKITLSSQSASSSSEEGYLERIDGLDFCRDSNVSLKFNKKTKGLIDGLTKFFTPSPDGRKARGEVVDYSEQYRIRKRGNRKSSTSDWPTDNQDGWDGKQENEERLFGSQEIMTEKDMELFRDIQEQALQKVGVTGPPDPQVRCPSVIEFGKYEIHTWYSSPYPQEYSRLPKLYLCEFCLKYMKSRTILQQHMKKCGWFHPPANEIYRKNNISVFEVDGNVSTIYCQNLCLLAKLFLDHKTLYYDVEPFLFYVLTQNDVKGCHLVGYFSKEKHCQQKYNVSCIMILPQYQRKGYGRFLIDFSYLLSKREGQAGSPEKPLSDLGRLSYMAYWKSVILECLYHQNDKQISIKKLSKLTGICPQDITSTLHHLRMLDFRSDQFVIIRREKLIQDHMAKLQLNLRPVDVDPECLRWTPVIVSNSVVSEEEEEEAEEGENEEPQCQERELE

Turning to `CC(Oc1ccccc1S(=O)(=O)NC(=O)c1cc2c(F)cc(N3CCC3)cc2o1)C(F)(F)F` (racemic) [Example 13, 6-(Azetidin-1-yl)-4-fluoro-N-(2-{[-1,1,1-trifluoropropan-2-yl]oxy}benzene-1-sulfonyl)-1-benzofuran-2-carboxamide (rac)], the IC50 in assay [1] is 18.9 nM; in assay [2] (MVLN, 24 h), 1.66e-07 M.
In the same order, the values of `CC(O)c1ccc(Cl)c(S(=O)(=O)NC(=O)c2cc3c(F)cc(N4CCC4)cc3o2)c1` (racemic) [Example 100, 6-(Azetidin-1-yl)-N-[2-chloro-5-(1-hydroxyethyl)benzene-1-sulfonyl]-4-fluoro-1-benzofuran-2-carboxamide (rac)] are 139 nM and 1.29e-06 M.
In the same order, the values of `CCOc1ccccc1S(=O)(=O)NC(=O)c1cc2c(F)cc(N3CCC3CNC(=O)OC)cc2o1` (racemic) [Example 105, Methyl {[1-{2-[(2-ethoxybenzene-1-sulfonyl)carbamoyl]-4-fluoro-1-benzofuran-6-yl}azetidin-2-yl]methyl}carbamate (rac)] are 1120 nM and greater than 2e-05 M.
Turning to `CCOc1ccccc1S(=O)(=O)NC(=O)c1cc2c(F)cc(N3CC[C@@H]3C(N)=O)cc2o1` (racemic) [Example 169, 1-{2-[(2-Ethoxybenzene-1-sulfonyl)carbamoyl]-4-fluoro-1-benzofuran-6-yl}azetidine-2-carboxamide (rac)], the IC50 in assay [1] was 4070 nM; in assay [2] (MVLN, 24 h) it was greater than 2e-05 M.
As to `COc1ccc2cccnc2c1S(=O)(=O)NC(=O)c1cc2c(F)cc(N3CCC3)cc2o1` [Example 8, 6-(Azetidin-1-yl)-4-fluoro-N-(7-methoxyquinoline-8-sulfonyl)-1-benzofuran-2-carboxamide], the IC50 in assay [1] is 21 nM; in assay [2] (MVLN, 24 h) it was 1.25e-07 M.
For `Cc1ccc(OC2CCCC2)c(S(=O)(=O)NC(=O)c2cc3c(F)cc(N4CCC4)cc3o2)c1` [Example 9, 6-(Azetidin-1-yl)-N-[2-(cyclopentyloxy)-5-methylbenzene-1-sulfonyl]-4-fluoro-1-benzofuran-2-carboxamide], in that order: 21.2 nM and 1.34e-07 M.
For `CN(C)c1ccccc1S(=O)(=O)NC(=O)c1cc2c(F)cc(N3CCC3)cc2o1` [Example 11, 6-(Azetidin-1-yl)-N-[2-(dimethylamino)benzene-1-sulfonyl]-4-fluoro-1-benzofuran-2-carboxamide], the IC50 in assay [1] came to 75.2 nM; in assay [2] (MVLN, 24 h), 1.45e-07 M.
In the same order, the values of `O=C(NS(=O)(=O)c1cccc2c1OCCC2)c1cc2c(F)cc(N3CCC3)cc2o1` [Example 12, 6-(Azetidin-1-yl)-N-(3,4-dihydro-2H-1-benzopyran-8-sulfonyl)-4-fluoro-1-benzofuran-2-carboxamide] are 42.7 nM and 1.63e-07 M.
For `O=C(NS(=O)(=O)c1c(F)cccc1OC1CCC1)c1cc2c(F)cc(N3CCC3)cc2o1` [Example 16, 6-(Azetidin-1-yl)-N-[2-(cyclobutyloxy)-6-fluorobenzene-1-sulfonyl]-4-fluoro-1-benzofuran-2-carboxamide], in that order: 43.5 nM and 1.69e-07 M.
Take `CC1Cc2cccc(S(=O)(=O)NC(=O)c3cc4c(F)cc(N5CCC5)cc4o3)c2O1` (stereo not shown) [Example 18, 6-(Azetidin-1-yl)-4-fluoro-N-[2-methyl-2,3-dihydro-1-benzofuran-7-sulfonyl]-1-benzofuran-2-carboxamide]: the IC50 was found to be 24.2 nM in assay [1] and 1.92e-07 M in assay [2] (MVLN, 24 h).
With `CC1(C)Cc2cccc(S(=O)(=O)NC(=O)c3cc4c(F)cc(N5CCC5)cc4o3)c2O1` [Example 21, 6-(Azetidin-1-yl)-N-(2,2-dimethyl-2,3-dihydro-1-benzofuran-7-sulfonyl)-4-fluoro-1-benzofuran-2-carboxamide], the IC50 amounted to 55.1 nM in assay [1] and 2.98e-07 M in assay [2] (MVLN, 24 h).
Turning to `O=C(NS(=O)(=O)c1ccccc1I)c1cc2c(F)cc(N3CCC3)cc2o1` [Example 22, 6-(Azetidin-1-yl)-4-fluoro-N-(2-iodobenzene-1-sulfonyl)-1-benzofuran-2-carboxamide], the IC50 is 34 nM in assay [1] and 3.19e-07 M in assay [2] (MVLN, 24 h).
In the same order, the values of `CCOc1cccc(C(C)C)c1S(=O)(=O)NC(=O)c1cc2c(F)cc(N3CCC3)cc2o1` [Example 23, 6-(Azetidin-1-yl)-N-[2-ethoxy-6-(propan-2-yl)benzene-1-sulfonyl]-4-fluoro-1-benzofuran-2-carboxamide] are 28.6 nM and 2.72e-07 M.
For the compound `O=C(NS(=O)(=O)c1c(F)cccc1C1CCC1)c1cc2c(F)cc(N3CCC3)cc2o1` [Example 24, 6-(Azetidin-1-yl)-N-(2-cyclobutyl-6-fluorobenzene-1-sulfonyl)-4-fluoro-1-benzofuran-2-carboxamide], the IC50 in assay [1] came out at 46.7 nM; in assay [2] (MVLN, 24 h) it was 3e-07 M.
For `CCOc1cccc(C)c1S(=O)(=O)NC(=O)c1cc2c(F)cc(N3CCC3)cc2o1` [Example 25, 6-(Azetidin-1-yl)-N-(2-ethoxy-6-methylbenzene-1-sulfonyl)-4-fluoro-1-benzofuran-2-carboxamide], in that order: 148 nM and 3.26e-07 M.
For `COc1ccc(Cl)c(C)c1S(=O)(=O)NC(=O)c1cc2c(F)cc(N3CCC3)cc2o1` [Example 27, 6-(Azetidin-1-yl)-N-(3-chloro-6-methoxy-2-methylbenzene-1-sulfonyl)-4-fluoro-1-benzofuran-2-carboxamide], in that order: 49.6 nM and 3.54e-07 M.
In the same order, the values of `CC(C)Oc1cccc(C(F)(F)F)c1S(=O)(=O)NC(=O)c1cc2c(F)cc(N3CCC3)cc2o1` [Example 28, 6-(Azetidin-1-yl)-4-fluoro-N-{2-[(propan-2-yl)oxy]-6-(trifluoromethyl)benzene-1-sulfonyl}-1-benzofuran-2-carboxamide] are 136 nM and 3.56e-07 M.
In the case of `CC(C)Oc1cccc(Cl)c1S(=O)(=O)NC(=O)c1cc2c(F)cc(N3CCC3)cc2o1` [Example 29, 6-(Azetidin-1-yl)-N-{2-chloro-6-[(propan-2-yl)oxy]benzene-1-sulfonyl}-4-fluoro-1-benzofuran-2-carboxamide], the IC50 came to 49.7 nM in assay [1] and 3.79e-07 M in assay [2] (MVLN, 24 h).
In the case of `CC(C)c1ccc(C(C)C)c(S(=O)(=O)NC(=O)c2cc3c(F)cc(N4CCC4)cc3o2)c1` [Example 30, 6-(Azetidin-1-yl)-N-[2,5-di(propan-2-yl)benzene-1-sulfonyl]-4-fluoro-1-benzofuran-2-carboxamide], the IC50 in assay [1] was 24.7 nM; in assay [2] (MVLN, 24 h) it was 4.18e-07 M.
For the compound `CCCOc1cccc(CCC)c1S(=O)(=O)NC(=O)c1cc2c(F)cc(N3CCC3)cc2o1` [Example 31, 6-(Azetidin-1-yl)-4-fluoro-N-(2-propoxy-6-propylbenzene-1-sulfonyl)-1-benzofuran-2-carboxamide], the IC50 in assay [1] is 34.9 nM; in assay [2] (MVLN, 24 h) it was 5.02e-07 M.
For `Cc1ccc(C(C)C)cc1S(=O)(=O)NC(=O)c1cc2c(F)cc(N3CCC3)cc2o1` [Example 32, 6-(Azetidin-1-yl)-4-fluoro-N-[2-methyl-5-(propan-2-yl)benzene-1-sulfonyl]-1-benzofuran-2-carboxamide], in that order: 34.2 nM and 5.11e-07 M.
In the same order, the values of `CCc1cccc(OCC2CC2)c1S(=O)(=O)NC(=O)c1cc2c(F)cc(N3CCC3)cc2o1` [Example 33, 6-(Azetidin-1-yl)-N-[2-(cyclopropylmethoxy)-6-ethylbenzene-1-sulfonyl]-4-fluoro-1-benzofuran-2-carboxamide] are 73.5 nM and 5.37e-07 M.
Regarding `CCc1ccc(C)c(S(=O)(=O)NC(=O)c2cc3c(F)cc(N4CCC4)cc3o2)c1` [Example 34, 6-(Azetidin-1-yl)-N-(5-ethyl-2-methylbenzene-1-sulfonyl)-4-fluoro-1-benzofuran-2-carboxamide], the IC50 in assay [1] came out at 59.6 nM; in assay [2] (MVLN, 24 h), 5.79e-07 M.
Turning to `CC(C)Oc1cccc(Br)c1S(=O)(=O)NC(=O)c1cc2c(F)cc(N3CCC3)cc2o1` [Example 39, 6-(Azetidin-1-yl)-N-{2-bromo-6-[(propan-2-yl)oxy]benzene-1-sulfonyl}-4-fluoro-1-benzofuran-2-carboxamide], in assay [2] (MVLN, 24 h), the IC50 was determined as 7.88e-07 M.
For the compound `CN(C(=O)Oc1ccccc1S(=O)(=O)NC(=O)c1cc2c(F)cc(N3CCC3)cc2o1)c1ccccc1` [Example 62, 2-{[6-(Azetidin-1-yl)-4-fluoro-1-benzofuran-2-carbonyl]sulfamoyl}phenyl methyl(phenyl)carbamate], the IC50 in assay [2] came to 6.43e-06 M.
Turning to `COc1ccc(C2=CCN(C(=O)OC(C)(C)C)CC2)cc1S(=O)(=O)NC(=O)c1cc2c(F)cc(N3CCC3)cc2o1` [Example 197, tert-butyl 4-(3-{[6-(azetidin-1-yl)-4-fluoro-1-benzofuran-2-carbonyl]sulfamoyl}-4-methoxyphenyl)-3,6-dihydropyridine-1(2H)-carboxylate], in assay [2] (MVLN, 24 h), the IC50 was 1.62e-07 M.
